# Laboratory results as given in US9309242B2, “Substituted pyrido[2,3-b]pyrazines as FGFR kinase inhibitors” (priority 2011, dated 2016).
# Structures can show the parent of a compound that is named as a salt. Where two headings read alike, the source gives them in different places.
# Legend:
# FGFR1 (h) = FGFR1 (h) (Homo sapiens, UniProt P11362); assay: FGFR1 (enzymatic assay), TR-FRET; type: biochemical; settings: read-out: FGFR 1 pIC50 (converted)
# FGFR2 (h) = FGFR2 (h) (Homo sapiens, UniProt P21802); assay: FGFR2 (enzymatic assay), TR-FRET; type: biochemical; settings: enzymatic assay, read-out: FGFR 2 pIC50 (converted)
# Summary of the method: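 Phosphorylation of 500 nM Btn-Flt3 by human FGFR2 (150 ng/ml) is measured at 0.4 μM ATP. The buffer is 50 mM HEPES pH 7.5 containing 6 mM MnCl2, 1 mM DTT, 0.1 mM Na3VO4 and 0.01% Triton-X-100, and compound is tested at 1% DMSO final.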
# FGFR3 (h) = FGFR3 (h) (Homo sapiens, UniProt P22607); assay: FGFR3 (enzymatic assay), TR-FRET; type: biochemical; settings: read-out: FGFR 3 pIC50 (converted)
# Text: Time-Resolved Fluorescence Resonance Energy Transfer (TR-FRET) signal (ex340 nm.
# FGFR4 (h) = FGFR4 (h) (Homo sapiens, UniProt P22455); assay: FGFR4 (enzymatic assay), TR-FRET; type: biochemical; settings: FGFR 4 pIC50, enzymatic assay
# KDR (h) = KDR (h) (Homo sapiens, UniProt P35968); assay: KDR (VEGFR2) (enzymatic assay), TR-FRET; type: biochemical; settings: read-out: VEGFR 2 (KDR) pIC50 (converted)
# Summary of the method: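 Phosphorylation of biotinylated Flt3 peptide (500 nM) by 150 ng/ml enzyme was measured at 3 μM ATP in Mn2+-containing HEPES buffer, pH 7.5, over 120 min at room temperature. Detection used Eu-anti-P-Tyr and SA-XL-665 TR-FRET.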
# [1] = target: T1, Ba/F3-FGFR1-transfected cells (Homo sapiens, UniProt P11362); assay: Ba/F3-FGFR1 (minus IL3) cellular proliferation assay, Alamar Blue; type: cell-based
# T1 construct: BAF3-FGFR1 (MIN IL3) pIC50; other: minus IL3
# Summary of the method: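 Ba/F3 cells transfected with FGFR1 (20000 cells/well) were plated onto compound in phenol red-free RPMI-1640 with 10% FBS, 2 mM L-glutamine and gentamycin, then kept 24 h at 37 °C, 5% CO2. Alamar Blue (resazurin) was added for 4 h and fluorescence read at ex 540/em 590 nm.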
# [2] = tested on: Ba/F3-FGFR1-transfected cells; assay: Ba/F3-FGFR1 (plus IL3) cellular proliferation assay, counterscreen with 10 ng/ml murine IL3; type: cell-based; settings: for BAF3-FGFR1 (PLUS IL3) pIC50: plus IL3 (10 ng/ml murine IL3, counterscreen)
# Summary of the method: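 Proliferation read-out: resazurin-based Alamar Blue fluorescence (540/590 nm) after 4 h, following 24 h compound treatment of 20000 Ba/F3-FGFR1 cells per well in 10% FBS RPMI at 37° C. IL3 counterscreen used the same protocol plus 10 ng/ml murine IL3.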
# [3] = target: T2, Ba/F3-FGFR3-transfected cells (Homo sapiens, UniProt P22607); assay: Ba/F3-FGFR3 (minus IL3) cellular proliferation assay, Alamar Blue; type: cell-based
# T2 construct: BAF3-FGFR3 (MIN IL3) pIC50; other: minus IL3
# Summary of the method: (§1)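 Ba/F3 cells transfected with FGFR3 were seeded at 20000 cells/well in phenol red-free RPMI-1640 with 10% FBS over compound in DMSO and kept 24 hours at 37° C, 5% CO2. Alamar Blue (resazurin) was then added for 4 hours and fluorescence read at ex 540/em 590 nm. The counterscreen repeated this with 10 ng/ml murine IL3.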
# [4] = tested on: Ba/F3-FGFR3-transfected cells; assay: Ba/F3-FGFR3 (plus IL3) cellular proliferation assay, counterscreen with 10 ng/ml murine IL3; type: cell-based; settings: for BAF3-FGFR3 (PLUS IL3) pIC50: plus IL3 (10 ng/ml murine IL3, counterscreen)
# Summary of the method: as §1
# [5] = target: T3, Ba/F3-KDR-transfected cells (Homo sapiens, UniProt P35968); assay: Ba/F3-KDR (minus IL3) cellular proliferation assay, Alamar Blue; type: cell-based
# T3 construct: BAF3-KDR (MIN IL3) pIC50; other: minus IL3
# Summary of the method: (§2)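 Compound in DMSO was dispensed first, then transfected cells in serum-containing RPMI-1640 were added. After a 24 h incubation, viability was gauged by resazurin reduction over 4 h, measured as fluorescence.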
# [6] = tested on: Ba/F3-KDR-transfected cells; assay: Ba/F3-KDR (plus IL3) cellular proliferation assay, counterscreen with 10 ng/ml murine IL3; type: cell-based; settings: for BAF3-KDR (PLUS IL3) pIC50: plus IL3 (10 ng/ml murine IL3, counterscreen)
# Summary of the method: as §2
# [7] = target: Ba/F3-FGFR4-transfected cells (Homo sapiens, UniProt P22455); assay: Ba/F3-FGFR4 cellular proliferation assay, Alamar Blue; type: cell-based
# Summary of the method: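 Step one: compound dilutions in DMSO are sprayed into wells. Step two: transfected Ba/F3-FGFR4 cells are added at 20000 per well and incubated 24 hours at 37° C. Step three: Alamar Blue is added for 4 hours and relative fluorescence is measured.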
# [8] = average values if tested multiple times
# Ba/F3-FGFR4-transfected cells, sequence (P22455 whole entry, change not shown): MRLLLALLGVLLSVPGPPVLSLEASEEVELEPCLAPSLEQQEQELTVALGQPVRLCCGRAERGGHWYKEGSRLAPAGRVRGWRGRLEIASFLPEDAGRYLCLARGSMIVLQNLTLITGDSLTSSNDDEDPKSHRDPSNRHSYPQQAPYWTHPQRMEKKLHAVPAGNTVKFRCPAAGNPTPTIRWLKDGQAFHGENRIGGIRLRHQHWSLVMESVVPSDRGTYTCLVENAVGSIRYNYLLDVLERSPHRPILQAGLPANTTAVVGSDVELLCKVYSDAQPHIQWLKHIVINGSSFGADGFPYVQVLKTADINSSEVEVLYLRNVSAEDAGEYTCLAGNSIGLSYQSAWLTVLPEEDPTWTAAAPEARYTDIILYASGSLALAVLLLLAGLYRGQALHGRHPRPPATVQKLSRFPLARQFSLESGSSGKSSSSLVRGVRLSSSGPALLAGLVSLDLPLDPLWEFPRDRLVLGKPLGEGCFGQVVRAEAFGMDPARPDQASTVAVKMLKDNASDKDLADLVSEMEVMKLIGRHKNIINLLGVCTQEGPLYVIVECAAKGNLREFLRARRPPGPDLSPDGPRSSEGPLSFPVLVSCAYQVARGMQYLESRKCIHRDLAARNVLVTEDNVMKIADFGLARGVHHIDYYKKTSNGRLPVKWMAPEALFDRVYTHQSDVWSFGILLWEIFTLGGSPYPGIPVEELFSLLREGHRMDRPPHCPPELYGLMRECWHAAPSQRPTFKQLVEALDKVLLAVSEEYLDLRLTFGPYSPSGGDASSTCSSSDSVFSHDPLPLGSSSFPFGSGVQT
# FGFR4 (h), sequence (P22455 22-802): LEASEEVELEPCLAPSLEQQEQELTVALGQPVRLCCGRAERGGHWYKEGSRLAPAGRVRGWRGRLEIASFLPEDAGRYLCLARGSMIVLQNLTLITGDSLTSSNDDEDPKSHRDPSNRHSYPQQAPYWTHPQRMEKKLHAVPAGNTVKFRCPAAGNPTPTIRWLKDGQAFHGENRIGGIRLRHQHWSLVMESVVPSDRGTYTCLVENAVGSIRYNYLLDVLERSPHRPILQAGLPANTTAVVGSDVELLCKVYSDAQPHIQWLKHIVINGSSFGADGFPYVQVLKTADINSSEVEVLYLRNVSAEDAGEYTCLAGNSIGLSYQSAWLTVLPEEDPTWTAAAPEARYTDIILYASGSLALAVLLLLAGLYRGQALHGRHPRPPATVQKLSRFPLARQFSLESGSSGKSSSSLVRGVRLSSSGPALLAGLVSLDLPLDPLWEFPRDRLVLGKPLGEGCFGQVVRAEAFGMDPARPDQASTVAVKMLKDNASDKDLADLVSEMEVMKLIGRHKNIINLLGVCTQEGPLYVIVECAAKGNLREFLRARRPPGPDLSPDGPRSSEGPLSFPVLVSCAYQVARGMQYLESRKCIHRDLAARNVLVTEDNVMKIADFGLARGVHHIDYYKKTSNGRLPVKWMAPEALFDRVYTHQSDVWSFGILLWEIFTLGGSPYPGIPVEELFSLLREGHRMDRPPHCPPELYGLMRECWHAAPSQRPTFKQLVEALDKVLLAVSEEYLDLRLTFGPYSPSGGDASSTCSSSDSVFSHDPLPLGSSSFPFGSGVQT
# T2 sequence (P22607 whole entry, change not shown): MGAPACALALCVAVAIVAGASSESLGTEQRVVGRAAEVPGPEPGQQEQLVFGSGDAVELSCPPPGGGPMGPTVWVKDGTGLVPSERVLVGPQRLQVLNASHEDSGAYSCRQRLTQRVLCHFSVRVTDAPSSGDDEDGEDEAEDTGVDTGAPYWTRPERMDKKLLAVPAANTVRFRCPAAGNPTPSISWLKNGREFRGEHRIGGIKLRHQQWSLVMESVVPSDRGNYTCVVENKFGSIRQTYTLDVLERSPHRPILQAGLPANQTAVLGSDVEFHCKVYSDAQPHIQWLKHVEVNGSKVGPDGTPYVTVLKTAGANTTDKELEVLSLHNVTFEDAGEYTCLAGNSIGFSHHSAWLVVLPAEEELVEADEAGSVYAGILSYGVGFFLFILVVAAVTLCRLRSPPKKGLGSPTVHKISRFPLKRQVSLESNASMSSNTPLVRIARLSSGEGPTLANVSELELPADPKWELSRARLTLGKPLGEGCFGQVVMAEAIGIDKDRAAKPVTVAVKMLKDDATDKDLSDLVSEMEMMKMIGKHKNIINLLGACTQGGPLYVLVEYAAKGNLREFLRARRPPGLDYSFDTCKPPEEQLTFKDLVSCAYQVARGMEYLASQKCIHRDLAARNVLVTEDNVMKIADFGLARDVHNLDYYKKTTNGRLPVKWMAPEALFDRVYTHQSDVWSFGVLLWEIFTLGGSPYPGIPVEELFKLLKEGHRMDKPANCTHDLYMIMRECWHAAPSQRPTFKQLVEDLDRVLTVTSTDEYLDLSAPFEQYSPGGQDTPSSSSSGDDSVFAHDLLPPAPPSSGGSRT
# T3 sequence (P35968 whole entry, change not shown): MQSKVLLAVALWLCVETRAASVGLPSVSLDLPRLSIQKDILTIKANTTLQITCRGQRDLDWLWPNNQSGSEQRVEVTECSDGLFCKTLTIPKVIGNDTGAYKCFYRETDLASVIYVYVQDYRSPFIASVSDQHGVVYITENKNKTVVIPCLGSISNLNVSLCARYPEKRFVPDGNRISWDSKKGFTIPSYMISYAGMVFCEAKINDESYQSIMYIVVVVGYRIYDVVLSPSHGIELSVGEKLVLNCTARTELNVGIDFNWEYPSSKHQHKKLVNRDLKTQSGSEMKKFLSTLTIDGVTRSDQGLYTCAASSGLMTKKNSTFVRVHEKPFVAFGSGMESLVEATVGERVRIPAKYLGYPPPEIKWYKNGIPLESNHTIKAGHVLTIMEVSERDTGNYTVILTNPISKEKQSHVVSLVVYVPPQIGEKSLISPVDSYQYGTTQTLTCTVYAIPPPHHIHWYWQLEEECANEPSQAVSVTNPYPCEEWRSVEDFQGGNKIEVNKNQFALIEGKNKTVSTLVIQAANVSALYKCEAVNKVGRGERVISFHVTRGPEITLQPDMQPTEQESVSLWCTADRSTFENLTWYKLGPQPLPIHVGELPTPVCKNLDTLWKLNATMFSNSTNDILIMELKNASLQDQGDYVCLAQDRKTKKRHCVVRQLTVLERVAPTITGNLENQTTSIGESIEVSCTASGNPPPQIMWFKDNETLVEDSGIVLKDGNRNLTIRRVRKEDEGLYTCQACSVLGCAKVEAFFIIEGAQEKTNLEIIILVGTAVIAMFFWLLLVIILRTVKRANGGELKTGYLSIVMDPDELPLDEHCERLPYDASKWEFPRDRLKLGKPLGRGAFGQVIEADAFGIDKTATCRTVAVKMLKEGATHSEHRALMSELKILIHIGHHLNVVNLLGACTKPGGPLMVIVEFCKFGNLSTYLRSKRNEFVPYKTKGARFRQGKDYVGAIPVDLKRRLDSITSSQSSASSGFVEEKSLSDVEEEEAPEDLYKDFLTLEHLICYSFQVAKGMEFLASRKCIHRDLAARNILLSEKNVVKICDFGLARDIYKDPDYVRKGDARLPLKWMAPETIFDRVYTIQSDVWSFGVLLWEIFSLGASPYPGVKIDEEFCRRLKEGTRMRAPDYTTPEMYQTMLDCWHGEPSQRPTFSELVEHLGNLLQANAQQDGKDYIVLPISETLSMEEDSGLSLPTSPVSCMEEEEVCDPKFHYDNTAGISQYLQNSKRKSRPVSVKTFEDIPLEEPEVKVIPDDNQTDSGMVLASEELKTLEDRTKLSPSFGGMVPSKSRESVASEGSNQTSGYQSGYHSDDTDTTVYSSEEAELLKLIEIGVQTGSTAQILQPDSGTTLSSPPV
# T1 sequence (P11362 whole entry, change not shown): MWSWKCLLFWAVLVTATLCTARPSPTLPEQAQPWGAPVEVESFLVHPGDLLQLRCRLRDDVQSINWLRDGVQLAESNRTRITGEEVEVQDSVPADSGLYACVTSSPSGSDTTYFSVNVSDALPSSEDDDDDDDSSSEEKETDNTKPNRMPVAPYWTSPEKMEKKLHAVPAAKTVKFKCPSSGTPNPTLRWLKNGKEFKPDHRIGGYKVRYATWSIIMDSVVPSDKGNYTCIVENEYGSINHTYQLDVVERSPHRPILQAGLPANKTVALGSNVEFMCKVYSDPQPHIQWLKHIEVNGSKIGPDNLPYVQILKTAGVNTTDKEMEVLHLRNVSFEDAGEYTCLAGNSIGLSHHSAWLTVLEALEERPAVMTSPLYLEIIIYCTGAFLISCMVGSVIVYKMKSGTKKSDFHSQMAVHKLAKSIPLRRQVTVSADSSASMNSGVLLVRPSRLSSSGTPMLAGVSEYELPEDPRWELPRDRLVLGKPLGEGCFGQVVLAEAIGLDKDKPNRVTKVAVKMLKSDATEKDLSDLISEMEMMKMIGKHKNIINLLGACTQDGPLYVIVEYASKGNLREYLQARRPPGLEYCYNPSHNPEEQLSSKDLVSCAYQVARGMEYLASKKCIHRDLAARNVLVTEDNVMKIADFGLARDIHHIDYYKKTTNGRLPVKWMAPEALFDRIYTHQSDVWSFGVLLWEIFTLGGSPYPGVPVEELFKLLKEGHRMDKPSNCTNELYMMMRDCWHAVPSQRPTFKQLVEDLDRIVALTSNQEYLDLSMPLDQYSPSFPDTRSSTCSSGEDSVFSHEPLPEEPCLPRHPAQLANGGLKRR
structure (smiles),measurement,setting,value
COc1cc(/N=c2\ccc3ncc(-c4cnn(C)c4)nc3n2CC2CCCCO2)cc(OC)c1 (stereo not shown),melting point,,210 °C
COc1cc(OC)cc(N(Cc2ncc[nH]2)c2ccc3ncc(-c4cnn(C)c4)nc3n2)c1 (as salt: tartrate) [Compound 24],melting point,,176 °C
CNCCN(c1ccc2ncc(-c3cn[nH]c3)nc2n1)c1c(F)c(OC)cc(OC)c1F (as salt: HCl) (hydrate or solvate) [Compound 106],melting point,,250 °C
COc1cc(/N=c2\ccc3ncc(-c4cnn(C)c4)nc3n2Cc2cc[nH]n2)c(F)c(OC)c1 (as salt: HCl) (hydrate or solvate) [Compound 115],melting point,,130 °C
COc1cc(OC)c(F)c(N(Cc2ncc[nH]2)c2ccc3ncc(-c4cnn(C)c4)nc3n2)c1 (as salt: fumarate) [Compound 23],melting point,,186 °C
COc1cc(OC)c(F)c(N(Cc2ncc[nH]2)c2ccc3ncc(-c4cnn(C)c4)nc3n2)c1 (as salt: lactate) [Compound 23],melting point,,118 °C
COc1cc(OC)cc(N(Cc2ncc[nH]2)c2ccc3ncc(-c4cnn(C)c4)nc3n2)c1 (as salt: fumarate) [Compound 24],melting point,,222 °C
COc1cc(OC)c(F)c(N(Cc2ncn(C3CNC3)n2)c2ccc3ncc(-c4cnn(C)c4)nc3n2)c1,melting point,,126 °C
COc1cc(OC)c(F)c(N(Cc2ncc[nH]2)c2ccc3ncc(-c4cnn(C)c4)nc3n2)c1 (as salt: hydrochloric acid salt) [Compound 23],melting point,,216 °C
COc1cc(OC)cc(N(Cc2ncc[nH]2)c2ccc3ncc(-c4cnn(C)c4)nc3n2)c1 (as salt: sulphate) [Compound 24],melting point,,266 °C
COc1cc(OC)cc(N(Cc2ncc[nH]2)c2ccc3ncc(-c4cnn(C)c4)nc3n2)c1 (as salt: phosphate) [Compound 24],melting point,,253 °C
CNCCN(c1ccc2ncc(-c3cnn(C)c3)nc2n1)c1c(F)c(OC)cc(OC)c1F (hydrate or solvate) [Compound 3],melting point,,134 °C
COc1cc(OC)cc(N(CCN2CCOCC2)c2ccc3ncc(-c4cnn(C)c4)nc3n2)c1 (as salt: hydrochloride) (hydrate or solvate) [Compound 146],melting point,,143 °C
COc1cc(OC)cc(N(Cc2ncc[nH]2)c2ccc3ncc(-c4cnn(C)c4)nc3n2)c1 (as salt: hydrochloride) (hydrate or solvate) [Compound 24],melting point,,> 260 °C
COc1cc(OC)c(F)c(N(Cc2ncc[nH]2)c2ccc3ncc(-c4cnn(C)c4)nc3n2)c1 (as salt: phosphate) [Compound 23],melting point,,175 °C
COc1cc(OC)c(F)c(N(Cc2ncc[nH]2)c2ccc3ncc(-c4cnn(C)c4)nc3n2)c1 (as salt: sulfate) [Compound 23],melting point,,198 °C
"COc1ccc(Cl)c(N(CC2CCC(=O)N2)c2ccc3ncc(-c4cnn(C)c4)nc3n2)c1Cl (single isomer, unassigned) [Compound 91]",IC50,FGFR1 (h),219 nM
same,IC50,FGFR2 (h),145 nM
same,IC50,FGFR3 (h),138 nM
same,IC50,FGFR4 (h),> 1000 nM
same,IC50,KDR (h),741 nM
same,BAF3-FGFR1 (MIN IL3) pIC50,[1],5.13
same,BAF3-FGFR1 (PLUS IL3) pIC50,[2],<5
same,BAF3-FGFR3 (MIN IL3) pIC50,[3],5.17
same,BAF3-FGFR3 (PLUS IL3) pIC50,[4],<5
same,BAF3-KDR (MIN IL3) pIC50,[5],<5
same,BAF3-KDR (PLUS IL3) pIC50,[6],<5
same,BAF3-FGFR4 pIC50,[7],<5
CNCCn1/c(=N/c2c(F)ccc(OC)c2Cl)ccc2ncc(-c3cnn(C)c3)nc21 [Compound 70],IC50,FGFR1 (h); [8],39.8 nM
same,IC50,FGFR2 (h); [8],23.4 nM
same,IC50,FGFR3 (h); [8],38.9 nM
same,IC50,FGFR4 (h); [8],93.3 nM
same,IC50,KDR (h); [8],537 nM
same,BAF3-FGFR1 (MIN IL3) pIC50,[1],5.75
same,IC50,[2]; read-out: BAF3-FGFR1 (PLUS IL3) pIC50 (converted),> 10 µM
same,BAF3-FGFR3 (MIN IL3) pIC50,[3],6.31
same,IC50,[4]; read-out: BAF3-FGFR3 (PLUS IL3) pIC50 (converted),> 10 µM
same,BAF3-KDR (MIN IL3) pIC50,[5],<5
same,IC50,[6]; read-out: BAF3-KDR (PLUS IL3) pIC50 (converted),> 10 µM
same,BAF3-FGFR4 pIC50,[7],5.69
"COc1cc(OC)c(F)c(N(CC2CCOC2)c2ccc3ncc(-c4cnn(C)c4)nc3n2)c1 (single isomer, unassigned) [Compound 171]",IC50,FGFR1 (h),3.55 nM
same,IC50,FGFR2 (h),2.57 nM
same,IC50,FGFR3 (h),1.55 nM
same,IC50,FGFR4 (h),3.72 nM
same,IC50,KDR (h),~14.5 nM
same,BAF3-FGFR1 (MIN IL3) pIC50,[1],7.10
same,BAF3-FGFR1 (PLUS IL3) pIC50,[2],<5
same,BAF3-FGFR3 (MIN IL3) pIC50,[3],7.28
same,BAF3-FGFR3 (PLUS IL3) pIC50,[4],<5
same,BAF3-KDR (MIN IL3) pIC50,[5],5.63
same,BAF3-KDR (PLUS IL3) pIC50,[6],<5
same,BAF3-FGFR4 pIC50,[7],6.55
COc1cc(OC)c(F)c(N(CC(O)COC(C)C)c2ccc3ncc(-c4cnn(C)c4)nc3n2)c1F (stereo not shown) [Compound 61],IC50,FGFR1 (h); [8],2.24 nM
same,IC50,FGFR2 (h); [8],4.17 nM
same,IC50,FGFR3 (h); [8],3.98 nM
same,IC50,FGFR4 (h); [8],4.07 nM
same,IC50,KDR (h); [8],16.6 nM
same,BAF3-FGFR1 (MIN IL3) pIC50,[1],7.56
same,BAF3-FGFR1 (PLUS IL3) pIC50,[2],<5
same,BAF3-FGFR3 (MIN IL3) pIC50,[3],7.87
same,BAF3-FGFR3 (PLUS IL3) pIC50,[4],<5
same,BAF3-KDR (MIN IL3) pIC50,[5],6.29
same,BAF3-KDR (PLUS IL3) pIC50,[6],<5
same,BAF3-FGFR4 pIC50,[7],7.56
COc1cc(OC)cc(N(Cc2ncc[nH]2)c2ccc3ncc(-c4cnn(C)c4)nc3n2)c1 [24-fumarate salt],IC50,FGFR1 (h); [8],0.631 nM
same,IC50,FGFR2 (h); [8],1.26 nM
same,IC50,FGFR3 (h); [8],0.851 nM
same,IC50,FGFR4 (h); [8],1.2 nM
same,IC50,KDR (h); [8],11.7 nM
same,BAF3-FGFR1 (MIN IL3) pIC50,[1],8.46
same,BAF3-FGFR1 (PLUS IL3) pIC50,[2],<5
same,BAF3-FGFR3 (MIN IL3) pIC50,[3],~8.61
same,BAF3-FGFR3 (PLUS IL3) pIC50,[4],<5
same,BAF3-KDR (MIN IL3) pIC50,[5],6.38
same,BAF3-KDR (PLUS IL3) pIC50,[6],<5
same,BAF3-FGFR4 pIC50,[7],7.85
COc1cc(OC)c(F)c(N(Cc2ncc[nH]2)c2ccc3ncc(-c4cnn(C)c4)nc3n2)c1 [23-fumarate salt],IC50,FGFR1 (h); [8],0.479 nM
same,IC50,FGFR2 (h); [8],1.51 nM
same,IC50,FGFR3 (h); [8],~0.891 nM
same,IC50,FGFR4 (h); [8],0.794 nM
same,IC50,KDR (h); [8],5.13 nM
same,BAF3-FGFR1 (MIN IL3) pIC50,[1],8.85
same,BAF3-FGFR1 (PLUS IL3) pIC50,[2],<5
same,BAF3-FGFR3 (MIN IL3) pIC50,[3],~8.67
same,BAF3-FGFR3 (PLUS IL3) pIC50,[4],<5
same,BAF3-KDR (MIN IL3) pIC50,[5],6.67
same,BAF3-KDR (PLUS IL3) pIC50,[6],<5
same,BAF3-FGFR4 pIC50,[7],7.94
COc1cc(/N=c2\ccc3ncc(-c4cnn(C)c4)nc3n2CC2CCC(=O)N2C)c(F)c(OC)c1 (stereo not shown) [Compound 160],IC50,FGFR1 (h),1.17 nM
same,IC50,FGFR2 (h),1.82 nM
same,IC50,FGFR3 (h),1.07 nM
same,IC50,FGFR4 (h),~3.39 nM
same,IC50,KDR (h),7.24 nM
same,BAF3-FGFR1 (MIN IL3) pIC50,[1],7.58
same,BAF3-FGFR1 (PLUS IL3) pIC50,[2],<5
same,BAF3-FGFR3 (MIN IL3) pIC50,[3],7.20
same,BAF3-FGFR3 (PLUS IL3) pIC50,[4],<5
same,BAF3-KDR (MIN IL3) pIC50,[5],5.89
same,BAF3-KDR (PLUS IL3) pIC50,[6],<5
same,BAF3-FGFR4 pIC50,[7],6.99
